Experimental data as given in ChEMBL document CHEMBL6153138, “Discovery of Novel Aromatic Urea-Imidazole Salt Derivatives for Cancer Therapy via Targeting ERK1/2” (J Med Chem, 2025).
Activity calls are given as the source filed them. The calls are words filed in the database; no cut-off is given here.

Columns and labels:
[1] = target: Mitogen-activated protein kinase 1 (Homo sapiens, UniProt P28482); assay: Inhibition of ERK2 (unknown origin) incubated for 60 mins by luminescence based ADP-Glo kinase assay
Sequence of Mitogen-activated protein kinase 1 (P28482 whole entry): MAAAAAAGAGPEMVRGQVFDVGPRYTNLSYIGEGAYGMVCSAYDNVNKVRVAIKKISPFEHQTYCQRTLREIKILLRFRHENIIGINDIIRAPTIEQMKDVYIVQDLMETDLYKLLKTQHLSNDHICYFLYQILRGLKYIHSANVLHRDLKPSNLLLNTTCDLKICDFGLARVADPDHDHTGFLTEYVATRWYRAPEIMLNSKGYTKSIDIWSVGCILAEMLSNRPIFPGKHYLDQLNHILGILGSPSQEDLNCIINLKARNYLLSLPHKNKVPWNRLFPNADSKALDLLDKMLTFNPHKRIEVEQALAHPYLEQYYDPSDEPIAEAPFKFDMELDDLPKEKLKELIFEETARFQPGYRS

[2] = system: MCF7; assay: Growth inhibition of human MCF7 cells at 5 uM incubated for 48 hrs by CCK-8 method relative to control; format: functional; conditions: read-out: GI
[3] = system: HepG2; assay: Growth inhibition of human HepG2 cells at 5 uM incubated for 48 hrs by CCK-8 method relative to control; format: functional; conditions: read-out: GI
[4] = system: A549; assay: Growth inhibition of human A549 cells at 5 uM incubated for 48 hrs by CCK-8 method relative to control; format: functional; conditions: read-out: GI
[5] = system: 5637; assay: Growth inhibition of human 5637 cells at 5 uM incubated for 48 hrs by CCK-8 method relative to control; format: functional; conditions: read-out: GI
[6] = system: MCF7; assay: Antiproliferative activity against human MCF7 cells incubated for 48 hrs by CCK-8 method; format: functional, cell-based; conditions: MCF7, 48 h
[7] = system: HepG2; assay: Antiproliferative activity against human HepG2 cells incubated for 48 hrs by CCK-8 method; format: functional, cell-based; conditions: HepG2, 48 h
[8] = system: A549; assay: Antiproliferative activity against human A549 cells incubated for 48 hrs by CCK-8 method; format: functional, cell-based; conditions: A549, 48 h
[9] = system: 5637; assay: Antiproliferative activity against human 5637 cells incubated for 48 hrs by CCK-8 method; format: functional, cell-based; conditions: Homo sapiens, 5637, 48 h
[10] = system: 4T1; assay: Antiproliferative activity against mouse 4T1 cells incubated for 48 hrs by CCK-8 method; format: functional, cell-based; conditions: 4T1, 48 h
[11] = system: MDA-MB-468; assay: Antiproliferative activity against human MDA-MB-468 cells incubated for 48 hrs by CCK-8 method; format: functional, cell-based; conditions: MDA-MB-468, 48 h
[12] = system: HCC1937; assay: Antiproliferative activity against human HCC1937 cells incubated for 48 hrs by CCK-8 method; format: functional, cell-based; conditions: HCC1937, 48 h
[13] = system: MCF-10A; assay: Antiproliferative activity against human MCF-10A cells incubated for 48 hrs by CCK-8 method; format: functional, cell-based
[14] = system: MCF7; assay: Activation of ERK1/2 pathway in human MCF7 cells assessed as increase in EGF-induced ERK phosphorylation at 5 uM incubated for 30 mins by Western blot analysis; format: cell-based; conditions: filed as activator
[15] = system: MCF7; assay: Activation of ERK1/2 pathway in human MCF7 cells assessed as increase in EGF-induced c-Myc phosphorylation at 5 uM incubated for 30 mins by Western blot analysis; format: cell-based
[16] = system: MCF7; assay: Activation of ERK1/2 pathway in human MCF7 cells assessed as increase in EGF-induced p90RSK phosphorylation at 5 uM incubated for 30 mins by Western blot analysis; format: cell-based
[17] = system: MCF7; assay: Induction of autophagy in human MCF7 cells assessed as increase in LC3B-II level at 5 uM by Western blot analysis; format: functional, cell-based
[18] = system: MCF7; assay: Induction of autophagy in human MCF7 cells assessed as increase in ATG5 level at 5 uM by Western blot analysis; format: functional, cell-based
[19] = system: MCF7; assay: Induction of autophagy in human MCF7 cells assessed as increase in Beclin-1 level at 5 uM by Western blot analysis; format: functional, cell-based
[20] = system: 4T1; assay: Antitumor activity against mouse 4T1 cells implanted in female BALB/c mouse model assessed as tumor growth inhibition at 50 mg/kg, ip qd measured for 18 days relative to control; format: functional; conditions: 4T1, 432 h, time 18 day, read-out: TGI
[21] = target: Mitogen-activated protein kinase 3 (Homo sapiens, UniProt P27361); assay: Inhibition of ERK1 (unknown origin) incubated for 60 mins by luminescence based ADP-Glo kinase assay
Sequence of Mitogen-activated protein kinase 3 (P27361 whole entry): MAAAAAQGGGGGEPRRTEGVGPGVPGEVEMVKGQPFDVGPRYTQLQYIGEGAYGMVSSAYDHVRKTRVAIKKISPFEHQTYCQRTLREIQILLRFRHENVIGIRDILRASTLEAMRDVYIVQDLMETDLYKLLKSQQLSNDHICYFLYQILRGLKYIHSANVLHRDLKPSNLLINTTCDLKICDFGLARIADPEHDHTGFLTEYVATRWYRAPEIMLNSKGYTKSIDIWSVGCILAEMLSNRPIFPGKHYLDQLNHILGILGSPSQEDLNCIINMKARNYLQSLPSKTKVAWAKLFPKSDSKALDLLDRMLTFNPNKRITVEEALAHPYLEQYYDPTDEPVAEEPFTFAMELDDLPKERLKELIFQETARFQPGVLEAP

Structure (SMILES): Cc1n(C[C@H](Cc2ccccc2)NC(=O)Nc2cc(C(F)(F)F)cc(C(F)(F)F)c2)cc[n+]1Cc1ccccc1
- IC50 [1]: 376 nM
- inhibition of growth at 5 µM [2]: 40.5%
- inhibition of growth at 5 µM [3]: 20.8%
- inhibition of growth at 5 µM [4]: 2.07%
- inhibition of growth at 5 µM [5]: 12.8%

Structure (SMILES): CC(C)Nc1cc(-c2c[nH]c(C(=O)N[C@H](CO)c3cccc(Cl)c3)c2)c(Cl)cn1 [ULIXERTINIB]
- IC50 [6]: > 10000 nM
- IC50 [7]: 6.12 µM
- IC50 [8]: 5.39 µM
- IC50 [9]: > 10 µM
- IC50 [10]: > 10 µM
- IC50 [11]: > 10000 nM
- IC50 [12]: > 10 µM
- IC50 [13]: > 10 µM
- Activity [14]: Active
- Activity [15]: inactive
- Activity [16]: inactive
- Activity [17]: Active
- Activity [18]: Active
- Activity [19]: Active
- inhibition in vivo at 50 mg/kg [20]: 26.9%

Structure (SMILES): CC(C)[C@@H](Cn1c[n+](Cc2ccccc2)c2ccccc21)NC(=O)Nc1cc(C(F)(F)F)cc(C(F)(F)F)c1
- IC50 [1]: 285 nM
- inhibition of growth at 5 µM [2]: 91.9%
- inhibition of growth at 5 µM [3]: 39.5%
- inhibition of growth at 5 µM [4]: 30.2%
- inhibition of growth at 5 µM [5]: 56.5%
- IC50 [6]: 3370 nM

Structure (SMILES): CC[C@@H](C)[C@@H](Cn1cc[n+](Cc2ccccc2)c1)NC(=O)Nc1cc(C(F)(F)F)cc(C(F)(F)F)c1
- IC50 [1]: 483 nM
- inhibition of growth at 5 µM [2]: 86.9%
- inhibition of growth at 5 µM [3]: 47.2%
- inhibition of growth at 5 µM [4]: 8.36%
- inhibition of growth at 5 µM [5]: 85.6%

Structure (SMILES): O=C(Nc1cc(C(F)(F)F)cc(C(F)(F)F)c1)N[C@@H](Cc1ccccc1)Cn1c[n+](Cc2ccccc2)c2ccccc21
- IC50 [1]: 206 nM
- inhibition of growth at 5 µM [2]: 99.5%
- inhibition of growth at 5 µM [3]: 35.3%
- inhibition of growth at 5 µM [4]: 50.6%
- inhibition of growth at 5 µM [5]: 56.8%
- IC50 [6]: 1550 nM

Structure (SMILES): O=c1[nH]cc(F)c(=O)[nH]1 [FLUOROURACIL]
- IC50 [6]: 6000 nM
- IC50 [7]: > 10 µM
- IC50 [9]: 7.4 µM
- IC50 [10]: > 10 µM
- IC50 [11]: > 10000 nM
- IC50 [12]: 5.67 µM
- IC50 [13]: > 10 µM

Structure (SMILES): CC(=O)N[C@@H](Cc1ccccc1)Cn1cnc2ccccc21
- IC50 [1]: > 10000 nM
- IC50 [21]: > 10 µM

Structure (SMILES): O=C(Nc1cc(C(F)(F)F)cc(C(F)(F)F)c1)N[C@@H](Cc1ccccc1)Cn1cc(C(F)(F)F)[n+](Cc2ccccc2)c1
- IC50 [1]: 297 nM
- inhibition of growth at 5 µM [2]: 19.4%
- inhibition of growth at 5 µM [3]: 31.2%
- inhibition of growth at 5 µM [4]: 13.5%
- inhibition of growth at 5 µM [5]: 26.4%

Structure (SMILES): CC[C@@H](C)[C@@H](Cn1c[n+](Cc2ccccc2)c2ccccc21)NC(=O)Nc1cc(C(F)(F)F)cc(C(F)(F)F)c1
- IC50 [1]: 283 nM
- inhibition of growth at 5 µM [2]: 100%
- inhibition of growth at 5 µM [3]: 100%
- inhibition of growth at 5 µM [4]: 97.8%
- inhibition of growth at 5 µM [5]: 99.5%
- IC50 [6]: 2680 nM
- IC50 [7]: 2.33 µM
- IC50 [8]: 3.92 µM
- IC50 [9]: 2.94 µM

Structure (SMILES): CC(C)[C@@H](Cn1cc[n+](Cc2ccccc2)c1)NC(=O)Nc1cc(C(F)(F)F)cc(C(F)(F)F)c1
- IC50 [1]: 606 nM
- inhibition of growth at 5 µM [2]: 55.7%
- inhibition of growth at 5 µM [3]: 24.5%
- inhibition of growth at 5 µM [4]: 7.18%
- inhibition of growth at 5 µM [5]: 31.5%

Structure (SMILES): CC[C@@H](C)[C@@H](Cn1cc(C(F)(F)F)[n+](Cc2ccccc2)c1)NC(=O)Nc1cc(C(F)(F)F)cc(C(F)(F)F)c1
- IC50 [1]: 507 nM
- inhibition of growth at 5 µM [2]: 100%
- inhibition of growth at 5 µM [3]: 13.9%
- inhibition of growth at 5 µM [4]: 23.5%
- inhibition of growth at 5 µM [5]: 96.8%
- IC50 [6]: 3480 nM
- IC50 [9]: 3.47 µM

Structure (SMILES): Cc1n(C[C@@H](NC(=O)Nc2cc(C(F)(F)F)cc(C(F)(F)F)c2)C(C)C)cc[n+]1Cc1ccccc1
- IC50 [1]: 535 nM
- inhibition of growth at 5 µM [2]: 7.92%
- inhibition of growth at 5 µM [3]: -4.95%
- inhibition of growth at 5 µM [4]: 7.87%
- inhibition of growth at 5 µM [5]: 21.1%

Structure (SMILES): O=C(N[C@@H](Cc1ccccc1)Cn1cnc2ccccc21)c1ccccc1
- IC50 [1]: > 10000 nM
- IC50 [21]: > 10 µM

Structure (SMILES): CC[C@@H](C)[C@@H](Cn1cc[n+](Cc2ccccc2)c1C)NC(=O)Nc1cc(C(F)(F)F)cc(C(F)(F)F)c1
- IC50 [1]: 406 nM
- inhibition of growth at 5 µM [2]: 64%
- inhibition of growth at 5 µM [3]: 71.3%
- inhibition of growth at 5 µM [4]: 8.26%
- inhibition of growth at 5 µM [5]: 17.6%

Structure (SMILES): O=C(N[C@@H](Cc1ccccc1)Cn1c[n+](Cc2cccc3ccccc23)c2ccccc21)c1ccccc1
- IC50 [1]: > 10000 nM
- IC50 [21]: > 10 µM

Structure (SMILES): O=C(Nc1cc(C(F)(F)F)cc(C(F)(F)F)c1)N[C@@H](Cc1ccccc1)Cn1c[n+](Cc2cccc(Cl)c2)c2ccccc21
- IC50 [1]: 166 nM
- IC50 [6]: 2340 nM
- IC50 [10]: 3.68 µM
- IC50 [11]: 2120 nM
- IC50 [12]: 3.4 µM
- IC50 [13]: > 10 µM

Structure (SMILES): O=C(Nc1cc(C(F)(F)F)cc(C(F)(F)F)c1)N[C@@H](Cc1ccccc1)Cn1c[n+](Cc2ccccc2Br)c2ccccc21
- IC50 [1]: 236 nM
- IC50 [6]: 1940 nM
- IC50 [10]: 3.51 µM
- IC50 [11]: 1620 nM
- IC50 [12]: 3 µM
- IC50 [13]: 9.25 µM

Structure (SMILES): Cc1ccc(NC(=O)N[C@@H](Cc2ccccc2)Cn2c[n+](Cc3ccc4ccccc4c3)c3ccccc32)cc1
- IC50 [1]: 399 nM
- IC50 [6]: 2520 nM
- IC50 [10]: 6.62 µM
- IC50 [11]: 3690 nM
- IC50 [12]: 3.62 µM
- IC50 [13]: > 10 µM

Structure (SMILES): O=C(Nc1cc(C(F)(F)F)cc(C(F)(F)F)c1)N[C@@H](Cc1ccccc1)Cn1cc[n+](Cc2ccccc2)c1
- IC50 [1]: 272 nM
- inhibition of growth at 5 µM [2]: 82%
- inhibition of growth at 5 µM [3]: 38.1%
- inhibition of growth at 5 µM [4]: 9.26%
- inhibition of growth at 5 µM [5]: 61.9%

Structure (SMILES): CC(=O)N[C@@H](Cc1ccccc1)Cn1c[n+](Cc2cccc3ccccc23)c2ccccc21
- IC50 [1]: > 10000 nM
- IC50 [21]: > 10 µM

Structure (SMILES): O=C(Nc1cc(C(F)(F)F)cc(C(F)(F)F)c1)N[C@@H](Cc1ccccc1)Cn1c[n+](Cc2ccccc2F)c2ccccc21
- IC50 [1]: 217 nM
- IC50 [6]: 2090 nM
- IC50 [10]: 3.13 µM
- IC50 [11]: 1820 nM
- IC50 [12]: 1.77 µM
- IC50 [13]: 8.38 µM

Structure (SMILES): N#Cc1ccccc1C[n+]1cn(C[C@H](Cc2ccccc2)NC(=O)Nc2cc(C(F)(F)F)cc(C(F)(F)F)c2)c2ccccc21
- IC50 [1]: 414 nM
- IC50 [6]: 3840 nM
- IC50 [10]: 7.41 µM
- IC50 [11]: 3640 nM
- IC50 [12]: 5.6 µM
- IC50 [13]: > 10 µM

Structure (SMILES): N#Cc1ccc(C[n+]2cn(C[C@H](Cc3ccccc3)NC(=O)Nc3cc(C(F)(F)F)cc(C(F)(F)F)c3)c3ccccc32)cc1
- IC50 [1]: 392 nM
- IC50 [6]: 5030 nM
- IC50 [10]: > 10 µM
- IC50 [11]: 2660 nM
- IC50 [12]: 3.82 µM
- IC50 [13]: > 10 µM

Structure (SMILES): O=C(Nc1cc(C(F)(F)F)cc(C(F)(F)F)c1)N[C@@H](Cc1ccccc1)Cn1c[n+](Cc2ccc3cccnc3c2)c2ccccc21
- IC50 [1]: 370 nM
- IC50 [6]: 1790 nM
- IC50 [10]: 5.29 µM
- IC50 [11]: 1810 nM
- IC50 [12]: 1.13 µM
- IC50 [13]: 8.22 µM
